Measured values published in patent US20190365685A1, “EYE DROPS FOR TREATING DRY EYE” (LTT BIO-PHARMA CO., LTD., priority 2013, published 2019).

Key:
HCE cells [1] = assay: MTT assay in hyperosmotic media with diclofenac, NaCl and/or PGE2 (Example 3); format: cell-based, Human; conditions: 150 mM NaCl, 24 hours
Experimental: HCE cells were incubated in hyperosmotic media containing diclofenac, 150 mM NaCl, and/or PGE2 for 24 hours. The number of viable cells was measured by MTT assay, and the absorbance data were expressed as relative values to that of the control (under isotonic conditions).
The same procedure as in Example 3 was followed, except that bromfenac was used in place of diclofenac.

[2] = system: Human corneal epithelial cells (HCE cells); assay: MTT assay of viable cells under hyperosmotic conditions (Example 1); format: cell-based; conditions: 150 mM NaCl, 280 mM glucose or 280 mM sorbitol, compared with other NSAIDs
Experimental: Human corneal epithelial cells (HCE cells) were incubated in hyperosmotic media containing diclofenac. The hyperosmotic conditions of each medium were created by 150 mM NaCl, 280 mM glucose, or 280 mM sorbitol. The number of viable cells was measured by MTT assay, and the absorbance was calculated relative to the control (under isotonic conditions). The values are represented as average±S.D. (n=3), with a single asterisk (*) indicating P<0.05 and a double asterisk (**) indicating P<0.01.
The same procedure as in Example 1 was followed, except that other nonsteroidal anti-inflammatory drugs (NSAIDs) were used in place of diclofenac.

HCE cells [3] = assay: Caspase-3-like activity under hyperosmotic conditions (Example 2); format: cell-based, Human; conditions: 150 mM NaCl, six hours of incubation
Experimental: (§1) HCE cells were incubated in hyperosmotic media containing diclofenac and 150 mM NaCl. After six hours of incubation, the caspase-3-like activity was measured using a fluorescent peptide substrate. Furthermore, after 12 hours of incubation, cell proliferation was assessed by BrdU incorporation assay, and the absorbance data were expressed as relative values to that of the control (under isotonic conditions). The values are represented as average±S.D. (n=3), with a single asterisk (*) indicating P<0.05 and a double asterisk (**) indicating P<0.01. The same procedure as in Example 2 was followed, except that bromfenac was used in place of diclofenac.

HCE cells [4] = assay: Cell proliferation by BrdU incorporation assay under hyperosmotic conditions (Example 2); format: cell-based, Human; conditions: 150 mM NaCl, 12 hours of incubation
Experimental: as §1

PGE2 = assay: Amount of PGE2 induced by arachidonic acid, measured by EIA (Example 3); format: cell-based, Human; conditions: HCE cells, 30 minutes pre-incubation, 10 μM arachidonic acid
Experimental: Separately, HCE cells were pre-incubated in media containing diclofenac for 30 minutes, and then incubated in media containing 10 μM arachidonic acid and diclofenac. The arachidonic acid was added to induce PGE2. The amount of PGE2 contained in each culture was measured by EIA. The values are represented as average±S.D. (n=3), with a single asterisk (*) indicating P<0.05 and a double asterisk (**) indicating P<0.01. The same procedure as in Example 3 was followed, except that bromfenac was used in place of diclofenac.

NFAT5 = NFAT5 expression and nuclear translocation by immunoblotting (Example 4); format: cell-based, Human; conditions: HCE cells, 150 mM NaCl, six hours or one hour
Experimental: HCE cells were incubated in hyperosmotic media containing diclofenac and 150 mM NaCl for six hours (FIG. 4A and FIG. 4C) or for one hour (FIG. 4B). Each whole cell homogenate (FIG. 4A and FIG. 4B) or nuclear extract (FIG. 4B) was analyzed by immunoblotting using an anti-NFAT5, anti-actin, or anti-lamin B antibody. The intensity of the NFAT5 band was measured and expressed as relative values to that of the control (under isotonic conditions without diclofenac) (FIG. 4A and FIG. 4B). The relative bgt1 mRNA expression level was measured by real-time RT-PCR, and the values normalized by the actin expression level are expressed as relative values to that of the control (under isotonic conditions without diclofenac) (FIG. 4C). The values are represented as average±S.D. (n=3), with a single asterisk (*) indicating P<0.05 and a double asterisk (**) indicating P<0.01. The same procedure as in Example 4 was followed, except that bromfenac was used in place of diclofenac.

[5] = system: corneal surface disorders in the dry eye model; assay: Rat dry eye model by lacrimal gland removal (Example 5); format: in vivo; conditions: lacrimal gland removed, ophthalmic solution 5 μl, 0.1% (3.1 mM), three times a day, fluorescein score, TUNEL
Experimental: The lacrimal gland of a rat was removed to prepare a dry eye model. One to five weeks after the lacrimal gland removal, an ophthalmic solution (5 μl) containing diclofenac (0.1%, 3.1 mM) was administered three times a day. The amount of tears was measured by the cotton thread test. Five weeks after the lacrimal gland removal, ocular tissue sections were prepared and subjected to TUNEL assay and DAPI staining. The values are represented as average±S.E.M., with a single asterisk (*) indicating P<0.01 and n.s. meaning “not significant”. The same procedure as in Example 5 was followed, except that bromfenac was used in place of diclofenac.

[6] = system: corneal surface disorders in the dry eye model; assay: Rat dry eye model, fluorescein score after four weeks of administration (Example 10); format: in vivo; conditions: lacrimal gland removed, ophthalmic solution 5 μl, 0.05% (1.55 mM), three times a day
Experimental: The lacrimal gland of a rat was removed to prepare a dry eye model. One week after the lacrimal gland removal, an ophthalmic solution (5 μl) containing diclofenac (0.05%, 1.55 mM; or 0.1%, 3.1 mM) was administered three times a day. After four weeks from the start of the administration, the tears were subjected to fluorescein staining, and the fluorescein score was calculated. The same procedure as in Example 10 was followed, except that a buffer was used (Vehicle) in place of diclofenac.

SMILES | number of viable cells with PGE2 (MTT) (HCE cells [1]; hyperosmotic media) | reducing cytotoxicity under hyperosmotic conditions (number of viable cells, MTT) [2] | inhibiting apoptosis under hyperosmotic conditions (caspase-3-like activity) (HCE cells [3]) | cell proliferative effect (BrdU incorporation) (HCE cells [4]) | concentration required to reduce cytotoxicity caused by hyperosmolarity (HCE cells [1]; MTT) [nM] | concentration required to reduce PGE2 (PGE2) [nM] | expression and nuclear translocation of NFAT5 (NFAT5) | effect of treating corneal surface disorders in the dry eye model [5] | corneal surface disorders in the dry eye model (fluorescein score) [6]
CCCCC[C@H](O)/C=C/[C@H]1[C@H](O)CC(=O)[C@@H]1C/C=C\CCCC(=O)O [PGE2, prostaglandin E2] | did not change |  |  |  |  |  |  |  | 
O=C(O)Cc1ccccc1Nc1c(Cl)cccc1Cl [diclofenac] |  | highly effective in reducing cytotoxicity under hyperosmotic conditions | effective in inhibiting apoptosis under hyperosmotic conditions | exhibited a cell proliferative effect | 100 | 0.1 | enhancing the expression and nuclear translocation of NFAT5 | exhibited the effect of treating corneal surface disorders | treatable
